Legend:
Assay in all cases: Test C pre-/postemergence plant response
Format in all cases: in vivo
[1] = system: winter barley (Hordeum vulgare)
In short: (§1)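 Application timings covered preemergence and postemergence (1- to 4-leaf plants, 2 to 18 cm), using a non-phytotoxic solvent mixture that included a surfactant. Controlled-environment holding lasted 15 to 25 days before visual scoring, where 100 denotes complete control and 0 no effect.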

[2] = system: winter wheat (Triticum aestivum)
In short: as §1

[3] = system: annual bluegrass (Poa annua)
In short: as §1

[4] = system: wild mustard (Sinapis arvensis)
In short: as §1

[5] = system: downy bromegrass (Bromus tectorum)
In short: as §1

[6] = system: spring barley (Hordeum vulgare)
In short: as §1

[7] = system: blackgrass (Alopecurus myosuroides)
In short: as §1

[8] = system: canarygrass (Phalaris minor)
In short: as §1

canola (Brassica rapa) = system: canola (Brassica rapa)
In short: as §1

[9] = system: green foxtail (Setaria viridis)
In short: as §1

[10] = system: pigweed (Amaranthus retroflexus)
In short: as §1

wild oat (Avena fatua) = system: wild oat (Avena fatua)
In short: as §1

[11] = system: windgrass (Apera spica-venti)
In short: as §1

[12] = system: spring wheat (Triticum aestivum)
In short: as §1

[13] = system: Italian ryegrass (Lolium multiflorum)
In short: as §1

[14] = Postemergence, 8 g ai/ha, scale 0 to 100, 0 no effect, 100 complete control
[15] = Postemergence, 16 g ai/ha, scale 0 to 100, 0 no effect, 100 complete control
[16] = Postemergence, 31 g ai/ha, scale 0 to 100, 0 no effect, 100 complete control
[17] = Postemergence, 62 g ai/ha, scale 0 to 100, 0 no effect, 100 complete control
[18] = Preemergence, 8 g ai/ha, scale 0 to 100 (0 no effect, 100 complete control)
[19] = Preemergence, 16 g ai/ha, scale 0 to 100 (0 no effect, 100 complete control)
[20] = Preemergence, 31 g ai/ha, scale 0 to 100 (0 no effect, 100 complete control)
[21] = Preemergence, 62 g ai/ha, scale 0 to 100, 0 no effect, 100 complete control

Structure (SMILES): Cc1cc(-c2ccc(Cl)cc2)nn1-c1c(OC(=O)CC(C)C)cnn(C)c1=O [Compound 37]
- Plant response rating, Barley, Winter [1, 14]: 10
- Plant response rating, Barley, Winter [1, 15]: 10
- Plant response rating, Barley, Winter [1, 16]: 25
- Plant response rating, Barley, Winter [1, 17]: 95
- Plant response rating, Barley, Winter [1, 18]: 0
- Plant response rating, Barley, Winter [1, 19]: 0
- Plant response rating, Barley, Winter [1, 20]: 20
- Plant response rating, Barley, Winter [1, 21]: 40
- Plant response rating, Wheat, Winter [2, 14]: 0
- Plant response rating, Wheat, Winter [2, 15]: 30
- Plant response rating, Wheat, Winter [2, 16]: 60
- Plant response rating, Wheat, Winter [2, 17]: 90
- Plant response rating, Wheat, Winter [2, 18]: 0
- Plant response rating, Wheat, Winter [2, 19]: 15
- Plant response rating, Wheat, Winter [2, 20]: 25
- Plant response rating, Wheat, Winter [2, 21]: 90
- Plant response rating, Bluegrass [3, 14]: 0
- Plant response rating, Bluegrass [3, 15]: 20
- Plant response rating, Bluegrass [3, 16]: 20
- Plant response rating, Bluegrass [3, 17]: 20
- Plant response rating, Bluegrass [3, 18]: 0
- Plant response rating, Bluegrass [3, 19]: 35
- Plant response rating, Bluegrass [3, 20]: 60
- Plant response rating, Bluegrass [3, 21]: 70
- Plant response rating, Mustard, Wild [4, 14]: 0
- Plant response rating, Mustard, Wild [4, 15]: 0
- Plant response rating, Mustard, Wild [4, 16]: 0
- Plant response rating, Mustard, Wild [4, 17]: 0
- Plant response rating, Mustard, Wild [4, 18]: 0
- Plant response rating, Mustard, Wild [4, 19]: 0
- Plant response rating, Mustard, Wild [4, 20]: 0
- Plant response rating, Mustard, Wild [4, 21]: 0
- Plant response rating, Bromegrass, Downy [5, 14]: 20
- Plant response rating, Bromegrass, Downy [5, 15]: 30
- Plant response rating, Bromegrass, Downy [5, 16]: 50
- Plant response rating, Bromegrass, Downy [5, 17]: 70
- Plant response rating, Bromegrass, Downy [5, 18]: 0
- Plant response rating, Bromegrass, Downy [5, 19]: 0
- Plant response rating, Bromegrass, Downy [5, 20]: 60
- Plant response rating, Bromegrass, Downy [5, 21]: 85
- Plant response rating, Barley, Spring [6, 14]: 0
- Plant response rating, Barley, Spring [6, 15]: 20
- Plant response rating, Barley, Spring [6, 16]: 50
- Plant response rating, Barley, Spring [6, 17]: 100
- Plant response rating, Barley, Spring [6, 18]: 0
- Plant response rating, Barley, Spring [6, 19]: 0
- Plant response rating, Barley, Spring [6, 20]: 15
- Plant response rating, Barley, Spring [6, 21]: 40
- Plant response rating, Blackgrass [7, 14]: 65
- Plant response rating, Blackgrass [7, 15]: 90
- Plant response rating, Blackgrass [7, 16]: 100
- Plant response rating, Blackgrass [7, 17]: 100
- Plant response rating, Blackgrass [7, 18]: 35
- Plant response rating, Blackgrass [7, 19]: 75
- Plant response rating, Blackgrass [7, 20]: 90
- Plant response rating, Blackgrass [7, 21]: 98
- Plant response rating, Canarygrass [8, 14]: 0
- Plant response rating, Canarygrass [8, 15]: 35
- Plant response rating, Canarygrass [8, 16]: 75
- Plant response rating, Canarygrass [8, 17]: 100
- Plant response rating, Canarygrass [8, 18]: 15
- Plant response rating, Canarygrass [8, 19]: 60
- Plant response rating, Canarygrass [8, 20]: 80
- Plant response rating, Canarygrass [8, 21]: 95
- Plant response rating, Canola (canola (Brassica rapa); [14]): 0
- Plant response rating, Canola (canola (Brassica rapa); [15]): 0
- Plant response rating, Canola (canola (Brassica rapa); [16]): 0
- Plant response rating, Canola (canola (Brassica rapa); [17]): 0
- Plant response rating, Canola (canola (Brassica rapa); [18]): 0
- Plant response rating, Canola (canola (Brassica rapa); [20]): 0
- Plant response rating, Canola (canola (Brassica rapa); [21]): 0
- Plant response rating, Foxtail, Green [9, 14]: 90
- Plant response rating, Foxtail, Green [9, 15]: 100
- Plant response rating, Foxtail, Green [9, 16]: 100
- Plant response rating, Foxtail, Green [9, 17]: 100
- Plant response rating, Foxtail, Green [9, 18]: 75
- Plant response rating, Foxtail, Green [9, 19]: 90
- Plant response rating, Foxtail, Green [9, 20]: 100
- Plant response rating, Foxtail, Green [9, 21]: 100
- Plant response rating, Pigweed [10, 14]: 0
- Plant response rating, Pigweed [10, 15]: 0
- Plant response rating, Pigweed [10, 16]: 0
- Plant response rating, Pigweed [10, 17]: 0
- Plant response rating, Pigweed [10, 18]: 0
- Plant response rating, Pigweed [10, 19]: 0
- Plant response rating, Pigweed [10, 20]: 0
- Plant response rating, Pigweed [10, 21]: 0
- Plant response rating, Oat, Wild (wild oat (Avena fatua); [14]): 25
- Plant response rating, Oat, Wild (wild oat (Avena fatua); [15]): 80
- Plant response rating, Oat, Wild (wild oat (Avena fatua); [16]): 90
- Plant response rating, Oat, Wild (wild oat (Avena fatua); [17]): 95
- Plant response rating, Oat, Wild (wild oat (Avena fatua); [18]): 20
- Plant response rating, Oat, Wild (wild oat (Avena fatua); [19]): 20
- Plant response rating, Oat, Wild (wild oat (Avena fatua); [20]): 70
- Plant response rating, Oat, Wild (wild oat (Avena fatua); [21]): 80
- Plant response rating, Windgrass [11, 14]: 0
- Plant response rating, Windgrass [11, 15]: 0
- Plant response rating, Windgrass [11, 16]: 15
- Plant response rating, Windgrass [11, 17]: 30
- Plant response rating, Windgrass [11, 18]: 0
- Plant response rating, Windgrass [11, 19]: 20
- Plant response rating, Windgrass [11, 20]: 60
- Plant response rating, Windgrass [11, 21]: 80
- Plant response rating, Wheat, Spring [12, 14]: 15
- Plant response rating, Wheat, Spring [12, 15]: 50
- Plant response rating, Wheat, Spring [12, 16]: 75
- Plant response rating, Wheat, Spring [12, 17]: 95
- Plant response rating, Wheat, Spring [12, 18]: 0
- Plant response rating, Wheat, Spring [12, 19]: 0
- Plant response rating, Wheat, Spring [12, 20]: 90
- Plant response rating, Wheat, Spring [12, 21]: 98
- Plant response rating, Ryegrass, Italian [13, 14]: 75
- Plant response rating, Ryegrass, Italian [13, 15]: 95
- Plant response rating, Ryegrass, Italian [13, 16]: 100
- Plant response rating, Ryegrass, Italian [13, 17]: 100
- Plant response rating, Ryegrass, Italian [13, 18]: 0
- Plant response rating, Ryegrass, Italian [13, 19]: 80
- Plant response rating, Ryegrass, Italian [13, 20]: 98
- Plant response rating, Ryegrass, Italian [13, 21]: 100
